According to patent US20080235824A1, “Use of Esterase Genes as Selectable Markers for Transforming Plant Cells” (priority 2006, published 2008):

Assays:
[1] = system: geranium petiole explants; experiment: Survival of geranium petiole explants on regeneration medium with detergents; format: cell-based, Pelargonium X hortorum; settings: for Survival of geranium petiole explants on regeneration medium: surviving/total explants
Experimental: Tween 20, a nonionic, fatty acid ester detergent, was evaluated as a potential selective agent for use in geranium (Pelargonium X hortorum) transformation experiments by placing geranium petiole explants into tissue culture with the addition to Tween 20 to the regeneration (shooting) medium normally used in geranium transformations (Robichon et al., 1995). Tween 20 was added at three concentrations: 1%, 0.1% and 0.01%. Each treatment consisted of 40 sterilized petiole explants placed in four tissue culture plates carrying 10 explants each. Survival of the explants was assayed weekly over four weeks on these media. Potential selective agent Span 20, also a nonionic, fatty acid ester detergent, was similarly evaluated, except that concentrations of 1%, 0.5% and 0.25% were evaluated over a twelve week period of time. The nonionic detergent Triton X-100, which is not a fatty acid ester detergent, was included for comparative purposes.

tomato leaf explants = experiment: Survival of tomato leaf explants on regeneration medium with detergents; format: cell-based, Lycoperisicon esculentum; settings: 1% detergent; for Survival of tomato leaf explants on regeneration medium: surviving/total explants
Experimental: Tween 20 was similarly evaluated as a potential selective agent for use in tomato (Lycoperisicon esculentum) transformations by placing tomato leaf explants placed into tissue culture; Tween 20 was added to tomato regeneration (shooting) medium normally used in tomato transformations (Riggs et al., 2001) at a 1% concentration. Each treatment consisted of 40 sterilized leaf explants placed in four tissue culture plates carrying 10 explants each. Survival of the explants was assayed weekly over four weeks on these media.

[2] = system: tomato cultivar Micro-Tom leaf explants; experiment: Agrobacterium transformation of tomato with selection on detergent or kanamycin; format: cell-based, Lycopersicon esculentum; settings: for No. of independent calli forming shoots / No. of rooted shoots / Transformation frequency (%): tomato Micro-Tom, pIPG768 bovine PGE; for Transformation frequency (%): confirmed by PCR
Description: Transgenic tomato (Lycopersicon esculentum) cultivar “Micro-Tom” plants were created using the Agrobacterium tumefaciens DNA delivery method [Riggs et al., 2001; Sun et al., 2006] using pIPG768. Selection was either on 1% Tween 20 added to both shoot and root regeneration media. As controls for comparative purposes, 100 micrograms/ml kanamycin was used.

[3] = system: tobacco cultivar Xanthi leaf explants; experiment: Agrobacterium transformation of tobacco with selection on detergent or kanamycin; format: cell-based, Nicotiana tabacum; settings: for Transformation frequency (%): confirmed by PCR
Description: Transgenic tobacco (Nicotiana tabacum) cultivar “Xanthi” plants were created using the Agrobacterium tumefaciens DNA delivery method [Horsch et al., 1985] using pIPG833. Selection was on 1% or on 0.05% Tween 20 added to both shoot and root regeneration media. As a control for comparative purposes, pIPG786 was used (carrying the nptII gene for kanamycin resistance) for transformation and 100 micrograms/ml kanamycin was used for selection.
Transgenic tobacco (Nicotiana tabacum) cultivar “Xanthi” plants were created using the Agrobacterium tumefaciens DNA delivery method [Horsch et al., 1985] using pIPG833. Selection was on 1% or on 0.05% Span 20 added to both shoot and root regeneration media.
Transgenic tobacco (Nicotiana tabacum) cultivar “Xanthi” plants were created using the Agrobacterium tumefaciens DNA delivery method [Horsch et al., 1985] using pIPG875. Selection was on 1% Span 20 added to the shoot regeneration medium and 0.05% Span 20 added to the root regeneration medium.

rooting tomato plants = experiment: Root growth of rooting tomato plants on 1% Tween 20 medium; format: in vivo
Description: The plant on the left, labeled “731”, was transformed using kanamycin selection and the kanamycin resistance gene driven by the 35S promoter on pIPG731 (ie., “empty” vector, without a lipase gene). The plant on the right, labeled “768”, was similarly transformed using kanamycin selection and the kanamycin resistance gene driven by the 35S promoter on pIPG768 (carrying a lipase gene). Both plants were rooted, kanamycin resistant transformants. Both plants, with roots removed to ca. 1-4 mm from the base, were transferred to rooting medium containing 1% Tween 20. After one week, the roots of both plants had grown to about the extent of the pIPG731 transformed plant, and the small ink marks were placed on the plates to indicate the extent of the root growth. Two weeks later, the roots on the plant transformed with pIPG731 had ceased to elongate and its roots started to appear brown at the growing tips, while the roots on the plant transformed with pIPG768 continued growing.
In order to test if the rooting medium inhibited or killed nontransgenic tomato that were rooting, regenerating nontransgenic tomato plants that were rooting, as well as transgenic tomato plants carrying pIPG678 that were rooting were placed on 1% Tween 20 medium.

[4] = system: tobacco cultivar Xanthi leaf explants; experiment: Agrobacterium transformation of tobacco with selection on detergent or kanamycin; format: cell-based, Nicotiana tabacum; settings: pIPG833 bovine PGE, 0.5% Tween, 73 explants
[5] = 1% Tween in shoot and root media, Exp. 1, 253 explants
[6] = tobacco Xanthi, pIPG833 bovine PGE, 1% Tween, 73 explants

Tween 20
Survival of geranium petiole explants on regeneration medium ([1]; 0.01% detergent, Week 1): 33/40 | Survival of geranium petiole explants on regeneration medium ([1]; 0.01% detergent, Week 2): 27/40 | Survival of geranium petiole explants on regeneration medium ([1]; 0.01% detergent, Week 3): 20/40 | Survival of geranium petiole explants on regeneration medium ([1]; 0.01% detergent, Week 4): 0/40 | Survival of geranium petiole explants on regeneration medium ([1]; 0.1% detergent, Week 1): 31/40 | Survival of geranium petiole explants on regeneration medium ([1]; 0.1% detergent, Week 2): 10/40 | Survival of geranium petiole explants on regeneration medium ([1]; 0.1% detergent, Week 3): 0/40 | Survival of geranium petiole explants on regeneration medium ([1]; 0.1% detergent, Week 4): 0/40 | Survival of geranium petiole explants on regeneration medium ([1]; 1% detergent, Week 1): 10/40 | Survival of geranium petiole explants on regeneration medium ([1]; 1% detergent, Week 2): 0/40 | Survival of geranium petiole explants on regeneration medium ([1]; 1% detergent, Week 3): 0/40 | Survival of geranium petiole explants on regeneration medium ([1]; 1% detergent, Week 4): 0/40 | Killing of geranium explants in tissue culture (in words) ([1]; summary of Table 1): completely killed all geranium explants in four weeks, even at the lowest level (0.01%) tested | Survival of tomato leaf explants on regeneration medium (tomato leaf explants; Week 1): 8/40 | Survival of tomato leaf explants on regeneration medium (tomato leaf explants; Week 2): 8/40 | Survival of tomato leaf explants on regeneration medium (tomato leaf explants; Week 3): 3/40 | Survival of tomato leaf explants on regeneration medium (tomato leaf explants; Week 4): 0/40 | Killing of tomato explants in tissue culture (in words) (tomato leaf explants; summary of Table 2): completely killed all tomato explants in four weeks | Share of tomato leaf material provided with bovine PGE on pIPG768 producing green shoots ([2]; regeneration medium with 1% Tween 20): nearly half | Fate of tomato leaf material provided with empty vector control plasmid ([2]; regeneration medium with 1% Tween 20, 30 days of selection): either died or produced a small amount of brown callus that died | No. of independent calli forming shoots [2, 5]: 25 | No. of rooted shoots [2, 5]: 25 | Transformation frequency (%) ([2]; 1% Tween, Exp. 1, 253 explants): 7% | No. of independent calli forming shoots ([2]; 1% Tween, Exp. 2, 204 explants): 15 | No. of rooted shoots ([2]; 1% Tween, Exp. 2, 204 explants): 15 | Transformation frequency (%) ([2]; 1% Tween, Exp. 2, 204 explants): 4% | No. of independent calli forming shoots ([2]; 1% Tween, Exp. 3, 275 explants): 48 | No. of rooted shoots ([2]; 1% Tween, Exp. 3, 275 explants): 48 | Transformation frequency (%) ([2]; 1% Tween, Exp. 3, 275 explants): 4% | Tissue provided with pIPG833 producing shoots ([3]; regeneration medium with 0.05% detergent): 100% | Tobacco leaf material provided with bovine PGE on pIPG833 producing green shoots ([3]; regeneration medium with 1% detergent): 16% | Transformation efficiency ([3]; tobacco Xanthi, pIPG833, detergent at the 0.05% level): 6% | No. of independent calli forming shoots ([3]; tobacco Xanthi, pIPG833 bovine PGE, 0.5% Tween, 73 explants): 73 | No. of independent calli forming shoots ([3]; tobacco Xanthi, pIPG833 bovine PGE, 1% Tween in shoot and root media, 73 explants): 12 | No. of rooted shoots [3, 6]: 12 | Transformation frequency (%) [3, 6]: 5% | Transformation frequency (%) ([3]; tobacco Xanthi, pIPG833 bovine PGE, 1% Tween, 73 explants, listed as Tween): 5% | Growth of transgenic tomato plants expressing bovine PGE (rooting tomato plants): did not affect growth | Root growth of nontransgenic rooting tomato plants (rooting tomato plants): completely and almost immediately inhibited root growth | No. of rooted shoots [4]: 73 | Transformation frequency (%) ([4]; confirmed by PCR): 6%
